The target in assay [1] is T1, Adenosine receptor A1 (Rattus norvegicus) (UniProt P25099).
T1 sequence (whole entry): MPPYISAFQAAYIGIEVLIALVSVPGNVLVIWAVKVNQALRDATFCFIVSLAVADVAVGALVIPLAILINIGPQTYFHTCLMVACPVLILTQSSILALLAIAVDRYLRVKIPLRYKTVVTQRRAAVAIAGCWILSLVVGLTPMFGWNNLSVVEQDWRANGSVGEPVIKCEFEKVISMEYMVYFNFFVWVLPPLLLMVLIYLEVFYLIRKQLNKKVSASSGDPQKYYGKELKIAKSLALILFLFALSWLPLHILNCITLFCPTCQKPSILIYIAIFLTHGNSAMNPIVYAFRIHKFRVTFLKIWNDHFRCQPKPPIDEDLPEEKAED
The assay can be described thus: Ability to displace [3H]N6-phenylisopropyladenosine binding from adenosine A1 receptor.

In assay [2] the target is Adenosine receptor A2a (Rattus norvegicus) (UniProt P30543). The assay can be described thus: Ability to displace [3H]-CGS- 21680 binding from adenosine A2A receptor.
Assay [3] concerns the target T2, Adenosine receptor A3 (Homo sapiens) (UniProt P0DMS8).
T2 sequence (whole entry): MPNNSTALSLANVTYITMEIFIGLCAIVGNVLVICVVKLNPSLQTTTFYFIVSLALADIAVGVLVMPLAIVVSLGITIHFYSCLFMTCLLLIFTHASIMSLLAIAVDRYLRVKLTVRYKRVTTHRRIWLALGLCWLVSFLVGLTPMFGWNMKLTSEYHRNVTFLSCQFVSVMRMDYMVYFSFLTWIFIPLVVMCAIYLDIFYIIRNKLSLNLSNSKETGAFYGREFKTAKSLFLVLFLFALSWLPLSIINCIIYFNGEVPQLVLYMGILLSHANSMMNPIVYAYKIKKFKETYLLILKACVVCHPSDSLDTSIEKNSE
The assay can be described thus: Ability to displace [125I]-AB-MECA binding from adenosine A3 receptor.

“And” between values parts separate entries of the source, which are not always exact repeats. Equal values may be shown once.

Adenosine receptor A2a (Rattus norvegicus), sequence (P30543 whole entry): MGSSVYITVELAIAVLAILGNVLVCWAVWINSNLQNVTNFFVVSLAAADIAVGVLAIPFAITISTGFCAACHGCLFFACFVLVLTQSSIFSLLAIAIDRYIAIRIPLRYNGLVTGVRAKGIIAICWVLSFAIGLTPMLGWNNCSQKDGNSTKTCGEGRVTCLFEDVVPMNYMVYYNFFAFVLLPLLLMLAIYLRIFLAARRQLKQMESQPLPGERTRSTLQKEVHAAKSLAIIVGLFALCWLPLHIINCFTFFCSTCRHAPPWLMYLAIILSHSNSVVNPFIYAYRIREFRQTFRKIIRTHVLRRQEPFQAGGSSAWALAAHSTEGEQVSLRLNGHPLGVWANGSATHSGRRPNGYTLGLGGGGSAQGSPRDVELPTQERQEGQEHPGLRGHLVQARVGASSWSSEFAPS

For the compound `COc1c(O)cc2oc(-c3ccc(O)cc3)cc(=O)c2c1O`, the results for the pKi(uM) in assay [1] and in assay [2] were -0.21 and -0.88, respectively. On to `COc1c2ccoc2cc2oc(/C=C/c3ccccc3)cc(=O)c12`, for which the pKi(uM) in assay [3] was -0.92; in assay [1] it was -1.51; in assay [2], -1.06. With `COc1ccc2oc(C#Cc3ccccc3)c(O)c(=O)c2c1`, the pKi(uM) in assay [3] is -1.38.

For `CC(=O)Oc1cc(OC(C)=O)c2c(c1)OC(c1ccccc1)C(OC(C)=O)C2=O` (stereo unspecified), the pKi(uM) in assay [2] was -1.75. In the case of `COc1ccc(-c2oc3cc(OC)cc(OC)c3c(=O)c2OC)cc1`, the figures for the pKi(uM) in assay [3] and in assay [1] were -0.53 and -0.03, respectively. As for `COc1c2ccoc2cc2oc(/C=N/c3ccccc3)cc(=O)c12`, in assay [3], the pKi(uM) is -0.96.

`COc1cc2oc(-c3ccc(O)cc3)cc(=O)c2c(O)c1OC`: the pKi(uM) in assay [3] is -0.5; in assay [1], -0.08; in assay [2] it was -0.48. As for `COc1ccc2c(=O)c(O)c(-c3ccc(O)c(O)c3)oc2c1`, the pKi(uM) in assay [3] is -0.14. Consider `COc1cc(OC)c2c(=O)c(OC)c(-c3ccccc3)oc2c1`, for which the pKi(uM) in assay [3] was 0.08 and -0.09; in assay [1] it was 0.29; in assay [2], -0.81. Turning to `CCOc1c2ccoc2cc2oc(/C=C/C=C/c3ccccc3)cc(=O)c12`, the results for the pKi(uM) in assay [3] and in assay [2] were -1.66 and -2.22, respectively. Take `O=c1c(Cl)c(-c2ccccc2)oc2ccc(Cl)cc12`: the pKi(uM) in assay [2] was -1.74. Take `O=C1c2ccccc2OC(c2ccccc2O)C1O` (stereo unspecified): the pKi(uM) in assay [1] is -1.96.

For `CCOc1ccc(-c2oc3cc(OCC)cc(OCC)c3c(=O)c2OCC)c(OCC)c1`, the results for the pKi(uM) in assay [3] and in assay [2] were -0.86 and -1.42, respectively. `Cc1ccc(-c2oc3ccc(Cl)cc3c(=O)c2Cl)c(C(C)C)c1` showed a pKi(uM) in assay [3] of 0.25. For `O=c1cc(-c2ccccc2)oc2cccc(O)c12`, the pKi(uM) in assay [2] was -0.79. Turning to `CCOc1c(-c2c(C)cc(C)cc2C)oc2ccc(Cl)cc2c1=O`, in assay [3], the pKi(uM) is -0.72. Consider `O=C1CC(c2ccc(O)cc2)Oc2ccccc21` (stereo unspecified), for which the pKi(uM) was -1.36 in assay [3] and -1.06 in assay [1].

Consider `COc1c2ccoc2cc2oc(C)cc(=O)c12`, for which the pKi(uM) in assay [3] is -1.78; in assay [2], -1.63. As for `O=c1cc(-c2ccccc2)oc2cc(O)ccc12`, the pKi(uM) was -0.48 in assay [1] and -0.43 in assay [2].

Turning to `COC1(OC)Cc2oc(-c3ccc(O)cc3O)c(CC=C(C)C)c(=O)c2C(O)=C1/C=C/C(C)C`, the pKi(uM) in assay [3] is -0.66. `COc1c2ccoc2cc2oc(C=O)cc(=O)c12`: the pKi(uM) in assay [3] was -1.95.

Regarding `COc1cc(OC)c2c(=O)c(OC)c(-c3cc(OC)c(OC)c(OC)c3)oc2c1`, the pKi(uM) in assay [3] was -0.82. Consider `CCOc1cc(O)c2c(=O)c(OCC)c(-c3ccccc3)oc2c1`, for which the pKi(uM) in assay [3] was 0.13; in assay [2], -1.8. For `COc1cc(O)c2c(c1)OC(c1ccc(O)cc1)CC2=O` (stereo unspecified), the pKi(uM) was -0.53 in assay [3], -0.91 in assay [1] and -1.55 in assay [2]. For `COc1cc(OC)c(-c2oc3ccccc3c(=O)c2O)c(OC)c1`, the pKi(uM) in assay [3] is -1.7; in assay [1], -0.86. On to `O=c1c(O)c(-c2ccc(O)c(O)c2)oc2cc(O)cc(O)c12`, for which the pKi(uM) in assay [2] is -0.84. In the case of `CCOc1ccc(-c2oc3cc(OCC)cc(O)c3c(=O)c2OCC)c(OCC)c1`, the pKi(uM) in assay [3] is -0.68. With `COc1ccc(-c2cc(=O)c3c(OC)c(OC)c(OC)cc3o2)cc1`, the results for the pKi(uM) in assay [3] and in assay [1] were -0.65 and -0.11, respectively. Consider `COc1ccc(-c2cc(=O)c3c(O)cc(C)cc3o2)cc1`, for which the results for the pKi(uM) in assay [3], in assay [1] and in assay [2] were -1.7, -0.53 and -1.45, respectively. Regarding `CCOc1cc(OCC)c2c(=O)c(OCC)c(-c3ccccc3)oc2c1`, the pKi(uM) in assay [3] is 0.44; in assay [1], 0.22; in assay [2], -0.52. Take `O=c1c(Cl)c(-c2ccccc2)oc2ccccc12`: the values for the pKi(uM) in assay [3] and in assay [2] were -1.06 and -1.4, respectively. For `COc1ccc2c(c1)C(=O)C(O)C(C#Cc1ccccc1)O2` (stereo unspecified), the pKi(uM) in assay [3] is -0.91; in assay [1], -1.7. The corresponding values for `CC(=O)Oc1cc(OC(C)=O)c2c(=O)c(OC(C)=O)c(-c3ccccc3)oc2c1` are -1.24 and -1.06. Take `O=c1cc(-c2ccccc2)oc2ccccc12`: the results for the pKi(uM) in assay [3], in assay [1] and in assay [2] were -1.23, -0.52 and -0.54, respectively. For `O=c1c(O)c(-c2ccccc2)oc2cc(O)cc(O)c12`, in assay [3], the pKi(uM) was -0.23.

As for `COc1ccc(-c2cc(=O)c3ccc(O)cc3o2)cc1OC`, the pKi(uM) is -1.27 in assay [1] and -1.54 in assay [2]. Turning to `COc1ccc2c(c1)C(=O)C(O)C(/C=C/c1ccccc1)O2` (stereo unspecified), the pKi(uM) in assay [3] is -1.32. Take `CCOc1c2ccoc2cc2oc(/C=C/c3ccccc3)cc(=O)c12`: the pKi(uM) is -0.06 in assay [3], -1.55 in assay [1] and -1.53 in assay [2]. As to `O=c1cc(-c2ccc(O)cc2)oc2cc(O)cc(O)c12`, the pKi(uM) is -0.48 in assay [1] and -0.88 in assay [2].

As to `O=C1CC(c2ccccc2O)Oc2ccccc21` (stereo unspecified), the pKi(uM) in assay [3] was -0.78; in assay [1], -0.42; in assay [2] it was -1.25. `O=c1cc(-c2ccccc2)oc2c1ccc1ccccc12`: the pKi(uM) in assay [1] was 0.1; in assay [2], -0.12. For `O=C1CC(c2ccccc2)Oc2ccccc21` (stereo unspecified), the pKi(uM) in assay [3] is -1.21.

The record behind these values is ChEMBL document CHEMBL1131204, “Flavonoid derivatives as adenosine receptor antagonists: a comparison of the hypothetical receptor binding site based on a comparative molecular field analysis model” (J Med Chem, 1998).
